US7892350B2, “Sacrificial agents for fly ash concrete” (Boral Material Technologies Inc., priority 2003, dated 2011)
Like-named read-outs stand apart in the source and are kept apart here.

Tests used:
[1] = Paste air entrainment, Maximum air protocol; conditions: for Average of air entrained at 66 min: over the fly ash:PCA pastes of Table 9
Description: Preparation of pastes: Pastes were prepared by pouring 400 g of cementitious powder in the 350-400 g of solution (water and additives) in a vessel (8.4 cm dia,×14.5 cm height) while gently stirring with a spatula; the exact quantity of water depends on the selected W/B ratio (see below); rapid hand mixing was continued for 1 minute, followed by intense stirring at 25° C. during 2 min using a hand-held mixer (BRAUN model MR400). The level of air entrained is dependent on the mode of utilisation of the mixer, namely the height of the mixer from the bottom of the vessel and the length of the mixing stroke; the following protocols were adopted.
Fluidity measurements: For all air entrainment measurements, the initial fluidity of the paste (without additives) was controlled using the ‘mini-slump’ procedure widely used for paste and grouts. In this protocol, a portion of the paste was transferred into the min-slump cone (a 2¼″ high, 1½″ bottom diameter, ¾″ top diameter cone); excess paste was skimmed-off with a straight; the cone was then raised and the spread diameter of the paste was recorded (average of two measurements). The fluidity is measured at 10 minutes after mixing. The paste is returned to the batch and reserved for subsequent AE measurements. The fluidity of the paste (without SA and AEA) is adjusted by changing the amount of water (water/cementitious ratio) which yields a spread diameter of 115±5 mm. The latter is monitored regularly.
Air entrainment measurements: For air entrainment measurements, a portion of the paste was transferred to overfill a Plexiglas cylinder (3¾ inches height, 2 inches interior diameter), which was then levelled flush to the top of the cylinder with a straight edge. The mass of the filled cylinder, minus the weight of the empty cylinder, is then recorded and used to calculate the amount of air according to the following formula: […]
This procedure was carried out at three times at 30 min. intervals (6, 36 and 66 min); the paste was let to stand at rest between measurements, and was stirred gently by hand for one minute prior to the subsequent air entrainment measurements.
Other combinations of air entrainment agents and sacrificial agents were prepared as stock solutions following the procedure outlined above, adjusting the weights of the various components to achieve the desired component ratios.

[2] = Second sacrificial agent testing protocol: paste air measurements with DDBS (0.0125 wt %) and rating; for Overall performance rating (second protocol rating): key: 0: Fail; 1: Poor; 2: Good; 3: Preferred; 4: Most preferred; for SA Rating (0-4): key: 0: Fail; 1: Poor; 2: Good; 3: Preferred; 4: Most preferred
Procedure, shortened: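 Air entrainment was measured in cement pastes of fixed composition and fluidity. The candidate agent was tested alone at 0.1 wt % in a cement-only paste. It was also tested at 0.05 and 0.1 wt % in a fly ash (B1)-cement paste with DDBS, where air recovery was calculated against the same paste without agent.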

[3] = 50:50 fly ash B1 (LOI 4.36%):PCA paste, Air 30 (0.0125 wt %)/ND/X=1/4/4, X = the labelled SA
[4] = 50:50 fly ash C1 (LOI 1.62%):PCA paste, Air 30 (0.0125 wt %)/ND/X=1/4/4, X = the labelled SA
[5] = 50:50 fly ash D (LOI […]):PCA paste, Air 30 (0.0125 wt %)/ND/X=1/4/4, X = the labelled SA
[6] = 50:50 fly ash M1 (LOI […]):PCA paste, Air 30 (0.0125 wt %)/ND/X=1/4/4, X = the labelled SA
[7] = 50:50 fly ash M2 (LOI 5.34%):PCA paste, Air 30 (0.0125 wt %)/ND/X=1/4/4, X = the labelled SA
[8] = 50:50 fly ash M3 (LOI 11.33%):PCA paste, Air 30 (0.0125 wt %)/ND/X=1/4/4, X = the labelled SA
[9] = 50:50 fly ash R (LOI […]):PCA paste, Air 30 (0.0125 wt %)/ND/X=1/4/4, X = the labelled SA
[10] = PCA paste, no fly ash, Air 30 (0.0125 wt %)/ND/X=1/4/4, X = the labelled SA
[11] = Air 30 (0.0125 wt %)/ND/X=1/4/4, X = the labelled SA
[12] = B1 FA/cement paste, 0.0125 wt % DDBS, 0.05 wt % SA
[13] = B1 FA/cement paste, 0.0125 wt % DDBS, 0.10 wt % SA
[14] = Portland cement paste (PCA), […]
[15] = sacrificial agent overall rating index
[16] = sum of ratings of air entrainment recovery by 0.05% and 0.1% SA, DDBS 0.0125 wt %, 50:50 B1 fly ash:cement paste

COC(C)COC(C)CO (centres unmarked) [Di-PGME, Di-propylene glycol methyl ether]
Air entrained at 66 min [1, 3]: 16 vol %
Air entrained at 66 min [1, 4]: 21 vol %
Air entrained at 66 min [1, 5]: 25 vol %
Air entrained at 66 min [1, 6]: 20 vol %
Air entrained at 66 min [1, 7]: 11 vol %
Air entrained at 66 min [1, 8]: 15 vol %
Air entrained at 66 min [1, 9]: 20 vol %
Air entrained at 66 min [1, 10]: 23 vol %
Average of air entrained at 66 min [1, 11]: 18%
B1 + 0.0125% DDBS + 0.05% SA (air entrainment) [2, 12]: 8.7
B1 + 0.0125% DDBS + 0.1% SA (air entrainment) [2, 13]: 9.7
PCA + 0.1% SA (level of air entrainment by the candidate sacrificial agent) [2, 14]: 1.1
SA Rating (0-4) [2, 15]: 4
Overall performance rating (second protocol rating) [2, 16]: 4

Sodium di-butyl naphthalene sulfonate [DBNS]
Air entrained at 66 min ([1]; 50:50 fly ash B1 (LOI 4.36%):PCA paste, Air 30 (0.0125 wt %)/X/ButOH=1/4/4, X = the labelled sulfonated SA): 11 vol %
Air entrained at 66 min ([1]; 50:50 fly ash D (LOI […]):PCA paste, Air 30 (0.0125 wt %)/X/ButOH=1/4/4, X = the labelled sulfonated SA): 20 vol %
Air entrained at 66 min ([1]; 50:50 fly ash M2 (LOI 5.34%):PCA paste, Air 30 (0.0125 wt %)/X/ButOH=1/4/4, X = the labelled sulfonated SA): 7 vol %
Air entrained at 66 min ([1]; PCA paste, no fly ash, Air 30 (0.0125 wt %)/X/ButOH=1/4/4, X = the labelled sulfonated SA): 17 vol %

CC(O)C(O)c1ccccc1 (centres unmarked) [1-Phe 2-Pro, 1-Phenyl 2-propylene glycol]
Air entrained at 66 min [1, 3]: 13 vol %
Air entrained at 66 min [1, 4]: 18 vol %
Air entrained at 66 min [1, 5]: 18 vol %
Air entrained at 66 min [1, 6]: 16 vol %
Air entrained at 66 min [1, 7]: 9 vol %
Air entrained at 66 min [1, 8]: 13 vol %
Air entrained at 66 min [1, 9]: 16 vol %
Air entrained at 66 min [1, 10]: 17 vol %
Average of air entrained at 66 min [1, 11]: 15%

Polyethylene glycol (Molecular weight = 1500) [PEG 1500]
Air entrained at 66 min ([1]; 50:50 fly ash B1 (LOI 4.36%):PCA paste, Air 30 (0.0125%)/NS/X=1/4/4, X = the labelled SA): 8 vol %
Air entrained at 66 min [1, 3]: 14 vol %
Air entrained at 66 min ([1]; 50:50 fly ash D (LOI […]):PCA paste, Air 30 (0.0125%)/NS/X=1/4/4, X = the labelled SA): 19 vol %
Air entrained at 66 min [1, 5]: 21 vol %
Air entrained at 66 min ([1]; 50:50 fly ash M1 (LOI […]):PCA paste, Air 30 (0.0125%)/NS/X=1/4/4, X = the labelled SA): 18 vol %
Air entrained at 66 min [1, 6]: 18 vol %
Air entrained at 66 min ([1]; 50:50 fly ash M2 (LOI 5.34%):PCA paste, Air 30 (0.0125%)/NS/X=1/4/4, X = the labelled SA): 5 vol %
Air entrained at 66 min [1, 7]: 9 vol %
Air entrained at 66 min ([1]; 50:50 fly ash R (LOI […]):PCA paste, Air 30 (0.0125%)/NS/X=1/4/4, X = the labelled SA): 16 vol %
Air entrained at 66 min [1, 9]: 18 vol %
Air entrained at 66 min ([1]; PCA paste, no fly ash, Air 30 (0.0125%)/NS/X=1/4/4, X = the labelled SA): 11 vol %
Air entrained at 66 min [1, 10]: 20 vol %
Average of air entrained at 66 min [1, 11]: 16%

NCCOCCO [2-(2-Aminoethoxy)ethanol]
B1 + 0.0125% DDBS + 0.05% SA (air entrainment) [2, 12]: 3.1
B1 + 0.0125% DDBS + 0.1% SA (air entrainment) [2, 13]: 3.9
PCA + 0.1% SA (level of air entrainment by the candidate sacrificial agent) [2, 14]: 0.5
SA Rating (0-4) [2, 15]: 1
Overall performance rating (second protocol rating) [2, 16]: 1

CC1=CCC2CC1C2(C)C (stereo not drawn) [Alpha-Pinene]
B1 + 0.0125% DDBS + 0.05% SA (air entrainment) ([2]; B1 FA/cement paste, […]): 2.4
B1 + 0.0125% DDBS + 0.1% SA (air entrainment) ([2]; B1 FA/cement paste, […]): 2.9
PCA + 0.1% SA (level of air entrainment by the candidate sacrificial agent) [2, 14]: 0.4
SA Rating (0-4) [2, 15]: 0

CCCOCCO [Ethylene Glycol n-Propyl Ether]
B1 + 0.0125% DDBS + 0.05% SA (air entrainment) [2, 12]: 7.4
B1 + 0.0125% DDBS + 0.1% SA (air entrainment) [2, 13]: 7.4
PCA + 0.1% SA (level of air entrainment by the candidate sacrificial agent) [2, 14]: 1.4
SA Rating (0-4) [2, 15]: 4
Overall performance rating (second protocol rating) [2, 16]: 4

O=P(O)(O)OP(=O)(O)OP(=O)(O)O [Sodium tripolyphosphate]
B1 + 0.0125% DDBS + 0.05% SA (air entrainment) [2, 12]: 2.2
B1 + 0.0125% DDBS + 0.1% SA (air entrainment) [2, 13]: 1.9
PCA + 0.1% SA (level of air entrainment by the candidate sacrificial agent) [2, 14]: 0.2
SA Rating (0-4) [2, 15]: 0

CC(C)(C)O [t-Butanol]
Overall performance rating (second protocol rating) [2]: 4

O[C@H]1[C@H](O)[C@@H](O)[C@H](O)[C@@H](O)[C@H]1O [Inositol]
B1 + 0.0125% DDBS + 0.05% SA (air entrainment) ([2]; B1 FA/cement paste, […]): 2.1
B1 + 0.0125% DDBS + 0.1% SA (air entrainment) ([2]; B1 FA/cement paste, […]): 2.1
PCA + 0.1% SA (level of air entrainment by the candidate sacrificial agent) [2, 14]: 0.1
SA Rating (0-4) [2, 15]: 0

COc1ccc(OC)cc1 [p-Dimethoxybenzene]
Overall performance rating (second protocol rating) [2]: 2
B1 + 0.0125% DDBS + 0.05% SA (air entrainment) ([2]; B1 FA/cement paste, […]): 4.7
B1 + 0.0125% DDBS + 0.1% SA (air entrainment) ([2]; B1 FA/cement paste, […]): 4.0
PCA + 0.1% SA (level of air entrainment by the candidate sacrificial agent) [2, 14]: 0.7
SA Rating (0-4) [2, 15]: 2

CCCCCO [1-Pentanol]
Overall performance rating (second protocol rating) [2]: 3
B1 + 0.0125% DDBS + 0.05% SA (air entrainment) ([2]; B1 FA/cement paste, […]): 4.9
B1 + 0.0125% DDBS + 0.1% SA (air entrainment) ([2]; B1 FA/cement paste, […]): 4.7
PCA + 0.1% SA (level of air entrainment by the candidate sacrificial agent) [2, 14]: 0.9
SA Rating (0-4) [2, 15]: 3

CCOC(C)=O [Ethyl acetate]
B1 + 0.0125% DDBS + 0.05% SA (air entrainment) ([2]; B1 FA/cement paste, […]): 3.2
B1 + 0.0125% DDBS + 0.1% SA (air entrainment) ([2]; B1 FA/cement paste, […]): 3.3
PCA + 0.1% SA (level of air entrainment by the candidate sacrificial agent) [2, 14]: 0.8
SA Rating (0-4) [2, 15]: 0

O=S(=O)([O-])c1cc(O)c2c(O)cc(S(=O)(=O)[O-])cc2c1.[Na+].[Na+]
B1 + 0.0125% DDBS + 0.05% SA (air entrainment) ([2]; B1 FA/cement paste, […]): 2.0
B1 + 0.0125% DDBS + 0.1% SA (air entrainment) ([2]; B1 FA/cement paste, […]): 2.5
PCA + 0.1% SA (level of air entrainment by the candidate sacrificial agent) [2, 14]: 0.0
SA Rating (0-4) [2, 15]: 0

COC(=O)CC(=O)OC [Dimethyl malonate]
B1 + 0.0125% DDBS + 0.05% SA (air entrainment) ([2]; B1 FA/cement paste, […]): 2.5
B1 + 0.0125% DDBS + 0.1% SA (air entrainment) ([2]; B1 FA/cement paste, […]): 2.6
PCA + 0.1% SA (level of air entrainment by the candidate sacrificial agent) [2, 14]: 0.2
SA Rating (0-4) [2, 15]: 0

CCCCCCCCCCCC(=O)OC [Methyllaurate]
B1 + 0.0125% DDBS + 0.05% SA (air entrainment) [2, 12]: 4.6
B1 + 0.0125% DDBS + 0.1% SA (air entrainment) [2, 13]: 2.8
PCA + 0.1% SA (level of air entrainment by the candidate sacrificial agent) [2, 14]: 1.0
SA Rating (0-4) [2, 15]: 1
Overall performance rating (second protocol rating) [2, 16]: 1

CNC(=O)NC [Dimethylurea]
B1 + 0.0125% DDBS + 0.1% SA (air entrainment) [2, 13]: 2.9
PCA + 0.1% SA (level of air entrainment by the candidate sacrificial agent) [2, 14]: 0.5
SA Rating (0-4) [2, 15]: 2
Overall performance rating (second protocol rating) [2, 16]: 2

O=C([O-])c1ccccc1O.[Na+] [Sodium Salicylate]
B1 + 0.0125% DDBS + 0.05% SA (air entrainment) [2]: 2.9
B1 + 0.0125% DDBS + 0.1% SA (air entrainment) [2]: 3.0
PCA + 0.1% SA (level of air entrainment by the candidate sacrificial agent) [2]: 0.4
SA Rating (0-4) [2]: 0
